After the bases stand the sugars from the 5' end (letter, count) and the backbone: PS all phosphorothioate, else s phosphorothioate and o phosphodiester by linkage. Methylation of C is not given here. e = 2'-O-(2-methoxyethyl) (MOE); k = constrained ethyl (cEt); d = 2'-deoxy (DNA); m = 2'-O-methyl
Biological target: HSD17B13
Conditions: ASO, HepaRG

Sequence	target mRNA inhibition (1 µM) [%]	also measured
TACATATCTTACTCTG (sugars k3 d10 k3, PS)	40	
AATAGGAGAGTCTTTC (sugars k3 d10 k3, PS)	47	
AGTAGTGTAAGCTGAG (sugars k3 d1 m1 d8 k3, PS)	68	
CTAGGAGATATAACAT (sugars k3 d10 k3, PS)	40	
CTGGTTCAGTCCTTGT (sugars k3 d10 k3, PS)	63	
TAGGCAGTAAAGTGCT (sugars k3 d10 k3, PS)	48	
GGATAGTCCATGCAAA (sugars k3 d10 k3, PS)	64	
AGAGTATTTCCTCTGG (sugars k3 d10 k3, PS)	32	
ACTGCTGCTAGTGCCA (sugars kkdddddddddkekek, PS)	39	
GCTGATTAATCTTGAT (sugars k3 d10 k3, PS)	48	
TCTACACTAATATTGA (sugars k3 d10 k3, PS)	21	
GATATTGTTTAGCTGA (sugars k3 d10 k3, PS)	59	
TGGCATGGCTACAGAT (sugars k3 d9 k3 e1, PS)	68	target mRNA inhibition (0.02 µM): 26%; target mRNA inhibition (0.078 µM): 22%; target mRNA inhibition (0.313 µM): 39%; target mRNA inhibition (1.25 µM): 75%; target mRNA inhibition (5 µM): 70%
AAAATATGTCCAGGTT (sugars k3 d10 k3, PS)	74	
AGAGTCGGTCACCTTT (sugars k3 d9 k3 e1, PS)	66	
GACAATGGTTGATAGT (sugars k3 d10 k3, PS)	67	
TCTCAAGGAGTACTTC (sugars k3 d10 k3, PS)	80	target mRNA inhibition (0.02 µM): 26%; target mRNA inhibition (0.078 µM): 32%; target mRNA inhibition (0.313 µM): 58%; target mRNA inhibition (1.25 µM): 82%; target mRNA inhibition (5 µM): 91%
TGTAATAGCCAGTACA (sugars k3 d1 m1 d8 k3, PS)	40	
TGATATTCTGTGGCAT (sugars k3 d10 k3, PS)	69	target mRNA inhibition (0.02 µM): 0%; target mRNA inhibition (0.078 µM): 0%; target mRNA inhibition (0.313 µM): 22%; target mRNA inhibition (1.25 µM): 64%; target mRNA inhibition (5 µM): 82%
ATCTTAAGATACCCAG (sugars k3 d9 k3 e1, PS)	71	
TCATAGTTTATATGGA (sugars k3 d10 k3, PS)	44	
TCTTATGTAATAGCCA (sugars k3 d10 k3, PS)	77	target mRNA inhibition (0.02 µM): 0%; target mRNA inhibition (0.078 µM): 2%; target mRNA inhibition (0.313 µM): 35%; target mRNA inhibition (1.25 µM): 74%; target mRNA inhibition (5 µM): 91%
CAATTATATGAGGTCT (sugars k3 d10 k3, PS)	36	

Sequence	target mRNA inhibition (1 µM) [%]	also measured
GATCGGCTGGATATAC (sugars k3 d10 k3, PS)	7	
GCCAACACTAATCTCA (sugars k3 d10 k3, PS)	40	
TATTCTGTGGCATGGC (sugars k3 d1 m1 d8 k3, PS)	55	
TAACCAATTATATGAG (sugars k3 d10 k3, PS)	0	
CATACCACTCTTCTCA (sugars k3 d10 k3, PS)	24	
CAAGACAGACTGTTGA (sugars k3 d10 k3, PS)	39	
TTTCCTCCACACCGCG (sugars k3 d10 k3, PS)	18	
TAAGATGTCCAGGCAT (sugars k3 d10 k3, PS)	17	
TCTTAAACCTTCCCTG (sugars k3 d10 k3, PS)	21	
GAATCCAGATCTGCCC (sugars k3 d10 k3, PS)	29	
AACCCAGTATTCACAA (sugars k3 d10 k3, PS)	0	
GTATCATTTGGCTTAA (sugars k3 d10 k3, PS)	29	
CATATACAGACTAAGG (sugars k3 d10 k3, PS)	57	
CCATCTATCAGACTTC (sugars k3 d10 k3, PS)	78	target mRNA inhibition (0.02 µM): 0%; target mRNA inhibition (0.078 µM): 0%; target mRNA inhibition (0.313 µM): 20%; target mRNA inhibition (1.25 µM): 63%; target mRNA inhibition (5 µM): 78%
ATCAAGACATTCTAGC (sugars k4 m1 d8 k3, PS)	37	
CAGTCTTAAACCTTCC (sugars k3 d10 k3, PS)	70	
ACAGATTGGAATGCTA (sugars kkdddddddddkekek, PS)	49	
AATTCACTATCTCCCT (sugars k3 d10 k3, PS)	10	
TTCGAATCATTAAGCT (sugars k3 d10 k3, PS)	63	
CATCTAACTAACCTGA (sugars k3 d10 k3, PS)	0	
AGAAATTTGTGAACCT (sugars k3 d10 k3, PS)	39	
TTAAAATAGAGTCGGT (sugars k3 d1 m1 d8 k3, PS)	70	

From the OligoGym collection
